Experiment [1] deals with T1, trypsin (Bos taurus, UniProt P00760).
T1 sequence (P00760 24-246): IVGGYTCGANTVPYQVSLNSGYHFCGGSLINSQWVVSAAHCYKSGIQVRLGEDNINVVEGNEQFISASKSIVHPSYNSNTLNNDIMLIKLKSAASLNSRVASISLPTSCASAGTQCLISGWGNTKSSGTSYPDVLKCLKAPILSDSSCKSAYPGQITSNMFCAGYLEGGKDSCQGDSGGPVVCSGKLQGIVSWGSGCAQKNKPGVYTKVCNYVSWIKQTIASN
The settings on record: at low concentrations, i.e., around 0.001 M; cited from earlier work.

Experiment [2] concerns trypsin. As to the kind of experiment: Trypsin inhibition (EnzChek protease assay kit), divalent cation salts with and without talc. Type of experiment: biochemical. The settings on record: for % synergistic activity relative to hypothetic additive value: (with talc value minus additive value) divided by additive value; for Salt alone trypsin inhibition activities (%): no talc. On the procedure: (§1) The objective of the following experiment was to determine whether and to what extent adding a divalent cation to talc inhibited trypsin activity in an in vitro assay. The inhibition of trypsin-induced cleavage of a fluorescent casein peptide was measured using the EnzChek™ protease assay kit, following manufacturer's instructions (EnzChek™ Protease Assay Kits Product Information, Revised; Molecular Probes, Eugene OR). […] Trypsin working solution (Sigma, St. Louis, MO, unit/mL) was prepared in a portion of the digestion buffer provided in the assay kit (the digestion buffer provided in the assay kit comprises, in total, 260mL of 200nM Tris-HCl, pH7.8, containing 40mM sodium azide). Stock solution of BODIPY FL casein (the trypsin substrate, comprising a casein derivative labeled with a pH-insensitive green fluorescent protein, mg/mL) was prepared by adding 0.2 mL of phosphate buffered saline (PBS) to the substrate vials provided in kit, allowing sufficient time at room temperature for the substrate to dissolve fully (each substrate vial provided in the kit contains 200µg of BODIPY FL casein lyophilized from phosphate-buffered saline (PBS)). The final substrate working solution (10 microgram/mL) was prepared by dilution of 0.2 mL of the stock solution of BODIPY FL with 19.8 mL of digestion buffer (pH 7.8). To detect enzyme activity, 100µL of the BODIPY FL casein working solution was added to 50µL of trypsin working solution (containing 100U of trypsin) and 50µl of the solution of the required test material (if required) . Following incubation of the trypsin, with or without the test materials, with the BODIPY fluorescent casein substrate, at room temperature for one hour, fluorescence was measured (excitation 485 nm /emission 530 nm) using a SpectraMax microtiter plate reader (Molecular Devices Corporation, Sunnyvale, CA) and Softmax Pro software (Molecular Devices Corporation). Each experiment was performed in three replicates. The percentage activity is quoted with comparison to results obtained from the assay performed without the addition of a test substrate.

Experiment [3] concerns trypsin. As to the kind of experiment: Inhibition of trypsin-induced cleavage of fluorescent casein (EnzChek protease assay kit), salts in PBS. Type of experiment: biochemical. To be noted: acetate monohydrate. Here is the method:
as §1, with “The” for “The objective of the following experiment was to determine whether and to what extent adding a divalent cation to talc inhibited trypsin activity in an in vitro assay. The”, “Following incubation of the trypsin, with or without the test materials, with the BODIPY fluorescent casein substrate, at room temperature for one hour, fluorescence was measured (excitation 485 nm /emission 530 nm) using a SpectraMax microtiter plate reader (Molecular Devices Corporation, Sunnyvale, CA) and Softmax Pro software (Molecular Devices Corporation). Each experiment was performed in three replicates. The percentage activity is quoted with comparison to results obtained from the assay performed without the addition of a test substrate.” left out

Experiment [4] concerns trypsin. Nature of the experiment: Trypsin inhibition (EnzChek protease assay kit), zinc oxide/acid mixtures and zinc oxide containing formulations. Type of experiment: biochemical. The settings on record: Table 5. Here is the method:
The objective of the following experiment was to determine whether and to what extent adding an acid to a formulation containing zinc oxide had on inhibition of trypsin activity in an in vitro assay. The inhibition of trypsin-induced cleavage of a fluorescent casein peptide was measured using the EnzChek^TM protease assay kit, following manufacturer's instructions (EnzChek^TM Protease Assay Kits Product Information, Revised; Molecular Probes, Eugene OR). Mixtures of zinc oxide and acid at different concentrations were prepared in lx PBS (pH 7.4) and their pH was recorded as listed in the Tables 5-8. Trypsin working solution (Sigma, St. Louis, MO, unit/mL) was prepared in a portion of the digestion buffer provided in the assay kit (the digestion buffer provided in the assay kit comprises, in total, 260mL of 200nM Tris-HCl, pH7.8, containing 40mM sodium azide). Stock solution of BODIPY FL casein (the trypsin substrate, comprising a casein derivative labeled with a pH-insensitive green fluorescent proten, mg/mL) was prepared by adding 0.2 mL of phosphate buffered saline (PBS) to the substrate vials provided in kit, allowing sufficient time at room temperature for the substrate to dissolve fully (each substrate vial provided in the kit contains 200µg of BODIPY FL casein lyophilized from phosphate-buffered saline (PBS)). The final substrate working solution (10 microgram/mL) was prepared by dilution of 0.2 mL of the stock solution of BODIPY FL with 19.8 mL of digestion buffer (pH 7.8). To detect enzyme activity, 100µL of the BODIPY FL casein working solution was added to 50µL of trypsin working solution (containing 100U of trypsin) and 50 µl of the solution of the required test material (if required). Following incubation of the trypsin, with or without the test materials (50 µl), with the BODIPY fluorescent casein substrate, at room temperature for one hour, fluorescence was measured (excitation 485 nm /emission 530 nm) using a SpectraMax microtiter plate reader (Molecular Devices Corporation, Sunnyvale, CA) and Softmax Pro software (Molecular Devices Corporation). Each experiment was performed in three replicates.
For preparations, samples were diluted in lx PBS at 1:10 ratio and subjected to centrifugation at 13,200 rpm for 1 min using Eppendorf Centrifuge (Model 5415D, Eppendorf AG, Hamburg, Germany) to remove the solid formulation ingredients. The supernatants (50 µl) were used for trypsin inhibitory activity analyses as described above. For preparations, samples were diluted in 10, or 20 or 40 % ethanol and subjected to centrifugation at 13,200 rpm for 1 min using Eppendorf Centrifuge (Model 5415D, Eppendorf AG, Hamburg, Germany) to remove the solid formulation ingredients. The supernatants (50 µl) were used for trypsin inhibition assay. […] The percentage activity is quoted with comparison to results obtained from the assay performed without the addition of a test substrate.
For the above study, the results are an average of three independent experiments, wherein the samples, which were diluted at 1:10 ratio in lx PBS solutions containing 10%, 20% or 40% ethanol, were tested in triplicates.

[5] abbreviates: Table 3, salt alone plus talc alone (8.55%), all at 0.1% (g/mL).
Where [6] appears, read: Table 4, 0.1% MgCl2 and 1% talc.
Where [7] appears, read: Table 4, 0.5% MgCl2 and 1% talc.

Molecules are shown by their SMILES. Where “and” joins values, the source holds several entries; their conditions need not be identical. Equal entries are not always repeated.

On to `[Ag+]` [Ag+], for which, in experiment [1], the “inhibition of the esterase activity of trypsin” value (shortened to “inhibition … of trypsin”) is given as “inhibited the esterase activity of trypsin”.
Regarding `CC(=O)[O-].CC(=O)[O-].O.[Ca+2]` [Calcium acetate monohydrate], the “% synergistic activity relative to hypothetic additive value” in experiment [2] (Table 3, all at 0.1% (g/mL)) is recorded as 3.10%. Besides, the “Salt alone trypsin inhibition activities (%)” value in experiment [2] (Table 3, salt 0.1% (g/mL)) stood at 15.31%. Moreover, the “Hypothetically calculated additive value of salt and Talc trypsin inhibition activities (%)” value in experiment [2] (setting [5]) was 23.86%.
In the same order, the values of `[Ca+2].[Cl-].[Cl-]` [Calcium chloride] are -0.26%, 17.95% and 26.50%.
As to `CC(=O)[O-].CC(=O)[O-].O.[Cu+2]` [Copper (II) acetate monohydrate], the “% Trypsin inhibitory activity” value in experiment [3] is 66.53% and 95.17%.
Take `[Cu+2]` [Cu++]: the “inhibition … of trypsin” value in experiment [1] is “inhibited the esterase activity of trypsin”.
As for `[Hg+2]` [Hg++], in experiment [1], the “inhibition … of trypsin” value is given as “inhibited the esterase activity of trypsin”.
In the case of `O.O.O.O.[Cl][Fe][Cl]` [Iron (II) chloride tetrahydrate], the “% synergistic activity relative to hypothetic additive value” in experiment [2] (Table 3, all at 0.1% (g/mL)) is reported as -12.35%. Besides, in experiment [2] (Table 3, salt 0.1% (g/mL)), the “Salt alone trypsin inhibition activities (%)” value is on record as 65.07%. For the same compound, the “Hypothetically calculated additive value of salt and Talc trypsin inhibition activities (%)” value in experiment [2] (setting [5]) was 73.62%.
Turning to `CC(=O)[O-].CC(=O)[O-].O.O.O.O.[Mg+2]` [Magnesium acetate tetrahydrate], in experiment [2] (Table 3, all at 0.1% (g/mL)), the “% synergistic activity relative to hypothetic additive value” is reported as 90.09%. For the same compound, the “Salt alone trypsin inhibition activities (%)” value in experiment [2] (Table 3, salt 0.1% (g/mL)) is given as 0.83%. In addition, in experiment [2] (setting [5]), the “Hypothetically calculated additive value of salt and Talc trypsin inhibition activities (%)” value is listed as 9.38%.
Consider `[Cl-].[Cl-].[Mg+2]` [Magnesium chloride], for which the “% synergistic activity relative to hypothetic additive value” in experiment [2] (Table 3, all at 0.1% (g/mL)) was determined as 50.75%. Further, the “Salt alone trypsin inhibition activities (%)” value in experiment [2] (Table 3, salt 0.1% (g/mL)) came to 4.75%; in experiment [2] (Table 4, 0.1% MgCl2 (g/mL)), 9.02%; in experiment [2] (Table 4, 0.5% MgCl2 (g/mL)), 19.51%; in experiment [2] (Table 4, 1% MgCl2 (g/mL)), 22.13%. The “Hypothetically calculated additive value of salt and Talc trypsin inhibition activities (%)” value in experiment [2] (setting [5]) is recorded as 13.30%; in experiment [2] (setting [6]), 12.44%; in experiment [2] (setting [7]), 22.93%; in experiment [2] (Table 4, 1% MgCl2 and 1% talc), 25.55%. In addition, the “With 1% Talc trypsin inhibition activities (%)” value was 25.43% in experiment [2] (Table 4, 0.1% MgCl2 (g/mL) with 1% talc); 32.84% in experiment [2] (Table 4, 0.5% MgCl2 (g/mL) with 1% talc); 40.42% in experiment [2] (Table 4, 1% MgCl2 (g/mL) with 1% talc). In addition, the “% synergistic activity relative to hypothetical additive value” in experiment [2] (setting [6]) turned out to be 104.42%; in experiment [2] (setting [7]) it was 43.22%; in experiment [2] (Table 4, 1% MgCl2 and 1% talc), 58.20%. In experiment [2] (combination of talc and magnesium chloride), the “trypsin inhibition (in words)” value is “synergistic increase in trypsin inhibition”. For the same compound, the “trypsin inhibitory activity (in words)” value in experiment [2] (talc or magnesium chloride alone) is reported as “moderate to low levels of trypsin inhibitory activity”.
As to `CC(=O)[O-].CC(=O)[O-].[Zn+2]` [Zinc acetate dihydrate], in experiment [2] (Table 3, all at 0.1% (g/mL)), the “% synergistic activity relative to hypothetic additive value” is reported as -15.70%. In addition, the “Salt alone trypsin inhibition activities (%)” value in experiment [2] (Table 3, salt 0.1% (g/mL)) is 62.84%. Further, the “Hypothetically calculated additive value of salt and Talc trypsin inhibition activities (%)” value in experiment [2] (setting [5]) was 71.39%.
The like results for `[Cl-].[Cl-].[Zn+2]` [Zinc chloride] were, in that order, -13.01%, 81.07% and 89.62%.
In the case of `[Zn+2]` [Zn++], the “inhibition … of trypsin” value in experiment [1] is “to a lesser extent”.
For the compound `[O]=[Zn]` [ZnO, zinc oxide], the “% Trypsin inhibitory activity” value in experiment [4] (0.1% ZnO, 0.01 % acetic acid, pH 7.28) was 1.85+/-1.34%; in experiment [4] (0.1% ZnO, 0.05% acetic acid, pH 6.03) it was 49.16+/-1.43%; in experiment [4] (0.1% ZnO, No acetic acid, pH 7.61), -2.6+/-2.76%; in experiment [4] (1% ZnO, 0.01 % acetic acid, pH 7.85) it was 15.82+/-1.68%; in experiment [4] (1% ZnO, 0.05% acetic acid, pH 6.08), 58.19+/-0.73%; in experiment [4] (1% ZnO, No acetic acid, pH 8.07) it was 5.40 +/- 1.24%. Further, the “trypsin inhibitory activity (in words)” value in experiment [4] (mixtures of zinc oxide and acetic acid) is given as “have trypsin inhibitory activity, which is dose-dependent”. Moreover, the “protease activity (in words)” value in experiment [4] (zinc oxide without acid) is on record as “minimal protease activity”.
As for `CC(=O)O` [acetic acid], the “% Trypsin inhibitory activity” value in experiment [4] (No ZnO, 0.01 % acetic acid, pH 6.84) is on record as -11.18+/-2.61%; in experiment [4] (No ZnO, 0.05% acetic acid, pH 4.75), 25.81+/-2.13%.

The values above are taken from patent publication EP2540303A1, “Divalent cation containing compositions and methods for treating and/or preventing enzymatic irritation” (Johnson & Johnson Consumer Companies Inc., priority 2011, dated 2013).
